Experiments:
OC43 = OC43 infection of A549 cells, viral nucleoprotein staining; type: cell-based, human beta coronavirus OC43; conditions: for EC50: Betacoronavirus 1, OC43, A549, 96 h, read-out: EC50 against OC43 infection; for Inhibition of OC43 infection, dose-response validation (in words): A549 cells
SARS-CoV-2 3CL = molecular target: T1, SARS-CoV-2 3CL (Severe acute respiratory syndrome coronavirus 2, UniProt P0DTD1); assay: Fluorescence-based 3CL enzyme activity assay in vitro (enzyme kinetics, Dixon plot); type: biochemical; conditions: range of substrate and inhibitor concentrations, SigmaPlot fit
T1 construct: the main viral protease, known as Mpro, 3CLpro, or nonstructural protein 5 (nsp5); made in house
Excerpt: Individual measurements are shown as semitransparent gray circles. Error bars depict means ± SEM. […] Individual measurements are shown as circles. […] RFU, relative fluorescence units.
To test this, we measured the rate of the 3CL enzymatic reaction in vitro using a fluorescence-based enzyme activity assay ([29]). We measured the rate of 3CL activity in a range of substrate and inhibitor concentrations and fitted the data to equations describing different modes of inhibition using SigmaPlot Enzyme Kinetics Module 1.3 (see methods).

PLpro = molecular target: T2, PLpro (Severe acute respiratory syndrome coronavirus 2, UniProt P0DTD1); assay: PLpro activity assay; type: biochemical, SARS-CoV-2; conditions: fig. S7
T2 construct: the papain-like protease, PLpro, a domain within nsp3

3C protease = 3C protease (Coxsackievirus B3, UniProt P03313); type: cell-based, picornaviruses
multiple picornaviruses = assay: Replication of picornaviruses; type: cell-based; conditions: fig. S8B
other RNA viruses = assay: Replication of other RNA viruses; type: cell-based
[1] = test system: SARS-CoV-2 (nCoV/Washington/1/2020); type: in vivo, mice
[2] = mouse, in vivo
[3] = feline model of asthma; cited from earlier work
3CL = test system: 3CL; set-up: method as in doi:10.1101/2020.08.29.272864; conditions: read-out: Previously reported IC50 in cells; cited from earlier work
[4] = 25 mg kg−1 twice a day, day six

Chain of 3C protease (P03313 1541-1723 limits assumed): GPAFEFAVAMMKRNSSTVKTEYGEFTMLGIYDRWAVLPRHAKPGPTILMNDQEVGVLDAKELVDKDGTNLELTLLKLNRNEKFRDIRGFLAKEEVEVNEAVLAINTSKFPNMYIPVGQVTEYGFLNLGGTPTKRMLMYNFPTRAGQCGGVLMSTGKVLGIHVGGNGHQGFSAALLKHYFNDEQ

OCCN1CCN(CCC=C2c3ccccc3Sc3ccc(C(F)(F)F)cc32)CC1 [Flupenthixol] showed an EC50 (OC43) of 1.8 µM.

COc1cc2c(Oc3ccc4[nH]c(C)cc4c3F)ncnc2cc1OCCCN1CCCC1 [Cediranib] showed an EC50 (OC43) of 0.52 µM.

In the case of Cc1ccc(O)c([C@H](CCN(C(C)C)C(C)C)c2ccccc2)c1 [tolertodine], the “Inhibition of OC43 infection, dose-response validation (in words)” value (from here on “Inhibition of OC43 infection”) (OC43) is reported as “weak inhibitors of OC43 infection”.

With CC[C@H]1OC(=O)[C@H](C)[C@@H](O[C@H]2C[C@@](C)(OC)[C@@H](O)[C@H](C)O2)[C@H](C)[C@@H](O[C@@H]2O[C@H](C)C[C@H](N(C)C)[C@H]2O)[C@](C)(O)C[C@@H](C)C(=O)[C@H](C)[C@@H](O)[C@]1(C)O [erythromycin] the “Inhibition of OC43 infection” value (OC43) was “failed validation”.

CCC(CC)COC(=O)[C@H](C)N[P@](=O)(OC[C@H]1O[C@@](C#N)(c2ccc3c(N)ncnn23)[C@H](O)[C@@H]1O)Oc1ccccc1 [Remdesivir] gave an EC50 (OC43) of 0.96 µM.

For Cc1ccc(NC(=O)c2ccc(CN3CC[C@H](N(C)C)C3)c(C(F)(F)F)c2)cc1Nc1nccc(-c2cncnc2)n1 [Bafetinib], the EC50 (OC43) was 2.1 µM.

COC(=O)N[C@H](C(=O)N1CCC[C@H]1c1nc(-c2ccc3c(c2)O[C@@H](c2ccccc2)n2c-3cc3cc(-c4c[nH]c([C@@H]5CCCN5C(=O)[C@@H](NC(=O)OC)C(C)C)n4)ccc32)c[nH]1)C(C)C [Elbasvir] gave an EC50 (OC43) of 0.17 µM.

For Cc1ccc(NC(=O)c2ccc(CN3CCN(C)CC3)cc2)cc1Nc1nc(-c2cccnc2)cs1 [Masitinib], the EC50 (OC43) was 2.1 µM, the “Mode of 3CL inhibition” value (SARS-CoV-2 3CL) was “competitive inhibition gave the best fit” and the “Effect on PLpro activity” value (PLpro) was “no effect”. The “Effect on 3C protease activity” value (3C protease) was “significantly inhibited the activity of the 3C protease”, the “Effect on replication of picornaviruses” value (multiple picornaviruses) was “effective in blocking the replication of multiple picornaviruses” and the “Effect on replication of other RNA viruses” value (other RNA viruses) was “not the replication of other RNA viruses”. For the same molecule, the “Reduction in viral titers in the lungs and nose (log)” value [1, 4] was “greater than two-log reduction”, the “Reduction of the viral load” value [1, 4] was > 99% and the “Concentrations of proinflammatory cytokines (such as IL-1β, IFN-γ) in the lungs” value ([1]; day six) was “significantly reduced”. The Overall lung pathology ([1]; day six, blindly scored 0 to 4) was “improved overall lung pathology”, the “Reduction in viral titers in the lungs” value ([1]; mouse, in vivo) was > 200 fold and the “Reduction in viral titers in the nose” value ([1]; mouse, in vivo) was > 200 fold. The “Survival, weight loss and clinical scores” value ([1]; up to 10 days) was “improvements in survival”, the Tolerability of dose [2] was “well tolerated, with minimal weight loss” and the “Airway inflammation and lung functions” value [3] was “decrease airway inflammation and improve lung functions”.

With CCCCOC(=O)c1ccc(O)cc1 [Butylparaben] the EC50 (OC43) was 1.7 µM.

COC[C@H]1C[C@@H](c2nc(-c3ccc4c(c3)COc3cc5c(ccc6nc([C@@H]7CC[C@H](C)N7C(=O)[C@@H](NC(=O)OC)C(C)C)[nH]c65)cc3-4)c[nH]2)N(C(=O)[C@H](NC(=O)OC)c2ccccc2)C1 [Velpatasvir] showed an EC50 (OC43) of 2 µM.

C[C@@H]1[C@H](O)[C@@H](C)/C=C/C=C/C=C/C=C/C=C/C=C/C=C/[C@H](O[C@@H]2O[C@H](C)[C@@H](O)[C@H](N)[C@@H]2O)C[C@@H]2O[C@](O)(C[C@@H](O)C[C@@H](O)[C@H](O)CC[C@@H](O)C[C@@H](O)CC(=O)O[C@H]1C)C[C@H](O)[C@H]2C(=O)O [Amphotericin B] gave an EC50 (OC43) of 0.19 µM.

In the case of O=C(Oc1cncc(Cl)c1)c1cccc2[nH]ccc12 [GRL-0496], the IC50 (3CL) is listed as 5 µM.

CS(=O)(=O)CCNCc1ccc(-c2ccc3ncnc(Nc4ccc(OCc5cccc(F)c5)c(Cl)c4)c3c2)o1 [Lapatinib] showed an EC50 (OC43) of 3.1 µM.

With O=C(c1ccc(OCCN2CCCCC2)cc1)c1c(-c2ccc(O)cc2)sc2cc(O)ccc12 [Raloxifene] the EC50 (OC43) was 2.7 µM.

For CN(C)CCCN1c2ccccc2CCc2ccc(Cl)cc21 [Clomipramine], the “OC43 infection in drug-repurposing screen” value (OC43; 10 μM, 4 days) was “top hits”.

In the case of Cc1ccc(NC(=O)c2ccc(CN3CCNCC3)cc2)cc1Nc1nc(-c2cccnc2)cs1 [AB3280], the “Inhibition of OC43 infection” value (OC43) is reported as “maintains its antiviral activity”.

Work on CCCCOC(=O)c1ccc(N)cc1 [Butamben] yielded an EC50 (OC43) of 3.1 µM.

Work on COc1ccc2cc1Oc1ccc(cc1)C[C@H]1c3c(cc4c(c3Oc3cc5c(cc3OC)CCN(C)[C@@H]5C2)OCO4)CCN1C [Cepharanthine] yielded an EC50 (OC43) of 0.77 µM.

Source: publication PMC8809056 (Science (New York, N.y.), 2021)
